The target of the assay is T1, SMARCA2 (Homo sapiens, UniProt P51531).
T1 construct: endogenous in cells; host or cells: HT1080 (CRISPR HiBiT knock-in clone, generated in house)
Nature of the assay: SMARCA2 HiBiT degradation assay (cellular). Format: cell-based. Conditions: table head names A549; for DC50: HiBiT-tagged SMARCA2, luminescence read-out, read-out: HiBit A549 SMARCA2 IP (nM) 6 h; for Emax: A549, 6 h incubation. Background: The HiBiT peptide binds its large partner to form an active luciferase.

Where [1] appears, read: Emax = amount of residual protein remaining in the cell following compound treatment.

T1 sequence (P51531 whole entry): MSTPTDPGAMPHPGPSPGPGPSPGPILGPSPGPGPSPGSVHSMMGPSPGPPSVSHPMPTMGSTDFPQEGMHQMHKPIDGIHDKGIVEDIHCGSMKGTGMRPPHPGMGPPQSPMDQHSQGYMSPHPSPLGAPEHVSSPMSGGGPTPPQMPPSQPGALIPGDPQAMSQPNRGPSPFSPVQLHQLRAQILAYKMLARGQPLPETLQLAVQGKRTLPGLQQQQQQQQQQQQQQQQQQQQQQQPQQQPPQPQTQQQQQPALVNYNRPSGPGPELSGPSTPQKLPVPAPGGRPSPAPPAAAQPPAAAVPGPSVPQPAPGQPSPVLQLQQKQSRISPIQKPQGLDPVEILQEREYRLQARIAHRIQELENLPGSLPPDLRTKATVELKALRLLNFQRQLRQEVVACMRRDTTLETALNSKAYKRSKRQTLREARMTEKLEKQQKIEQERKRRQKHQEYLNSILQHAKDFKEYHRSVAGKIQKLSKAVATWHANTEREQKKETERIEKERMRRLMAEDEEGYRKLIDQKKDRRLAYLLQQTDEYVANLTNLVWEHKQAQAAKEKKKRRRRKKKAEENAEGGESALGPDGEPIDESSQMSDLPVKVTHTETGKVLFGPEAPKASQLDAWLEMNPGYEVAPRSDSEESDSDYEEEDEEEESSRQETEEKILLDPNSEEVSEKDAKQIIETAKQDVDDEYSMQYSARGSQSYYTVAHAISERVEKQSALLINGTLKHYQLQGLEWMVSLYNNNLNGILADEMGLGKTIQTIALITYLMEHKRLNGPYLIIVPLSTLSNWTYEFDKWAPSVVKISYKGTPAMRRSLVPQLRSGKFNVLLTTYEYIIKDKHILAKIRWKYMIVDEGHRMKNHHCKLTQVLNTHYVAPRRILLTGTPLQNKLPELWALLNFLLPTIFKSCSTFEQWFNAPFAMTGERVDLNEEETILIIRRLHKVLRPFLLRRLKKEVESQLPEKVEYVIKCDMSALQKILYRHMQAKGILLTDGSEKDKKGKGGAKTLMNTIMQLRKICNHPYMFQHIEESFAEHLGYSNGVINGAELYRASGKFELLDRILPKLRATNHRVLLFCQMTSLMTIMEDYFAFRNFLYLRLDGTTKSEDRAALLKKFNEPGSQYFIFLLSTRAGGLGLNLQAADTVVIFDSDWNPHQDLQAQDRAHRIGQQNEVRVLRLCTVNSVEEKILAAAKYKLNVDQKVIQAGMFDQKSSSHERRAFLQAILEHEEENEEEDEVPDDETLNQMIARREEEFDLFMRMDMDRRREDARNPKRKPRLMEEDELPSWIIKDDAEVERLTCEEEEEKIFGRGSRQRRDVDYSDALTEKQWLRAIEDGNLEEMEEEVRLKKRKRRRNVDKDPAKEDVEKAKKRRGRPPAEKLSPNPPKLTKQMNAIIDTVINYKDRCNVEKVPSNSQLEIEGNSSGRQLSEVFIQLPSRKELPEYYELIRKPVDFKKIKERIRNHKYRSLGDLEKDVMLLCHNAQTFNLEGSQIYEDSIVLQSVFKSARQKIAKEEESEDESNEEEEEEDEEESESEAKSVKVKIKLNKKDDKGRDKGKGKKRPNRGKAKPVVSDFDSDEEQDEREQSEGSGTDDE

On to `Nc1nnc(-c2ccccc2O)cc1N1CC2CCC(C1)N2c1cccc(OCCN2CCN(C(=O)CNC(=O)C3CCN(c4ccc5c(c4)C(=O)N(C4CCC(=O)NC4=O)C5=O)CC3)CC2)c1` (racemic) [Example 19, rac-N-[2-[4-[2-[3-[3-[3-amino-6-(2-hydroxyphenyl)pyridazin-4-yl]-3,8-diazabicyclo[3.2.1]octan-8-yl]phenoxy]ethyl]piperazin-1-yl]-2-oxo-ethyl]-1-[2-(2,6-dioxo-3-piperidyl)-1,3-dioxo-isoindolin-5-yl]piperidine-4-carboxamide], for which the “HiBit A549 SMARCA2 Emax (%) 6 h” value (6 h incubation, Emax = amount of residual protein remaining in the cell following compound treatment) amounted to 34%. The DC50 (6 h incubation) came to 64 nM.

As usually defined, the Emax is the size of the effect at its maximum, as opposed to the concentration needed. Turning to `Nc1nnc(-c2ccccc2O)cc1N1CC(Oc2cccc(N3CCN(C(=O)CN4CCC(c5ccc(NC6CCC(=O)NC6=O)cc5)CC4)CC3)c2)C1` (racemic) [Example 112, rac-3-[4-[1-[2-[4-[3-[1-[3-amino-6-(2-hydroxyphenyl)pyridazin-4-yl]azetidin-3-yl]oxyphenyl]piperazin-1-yl]-2-oxo-ethyl]-4-piperidyl]anilino]piperidine-2,6-dione], the DC50 (6 h incubation) came out at 101 nM. The compound further yielded an Emax under setting [1] of 51%.

For `Nc1nnc(-c2ccccc2O)cc1N1CC(Oc2cccc(CN3CCN(C(=O)CCCCCCNc4cccc5c4C(=O)N(C4CCC(=O)NC4=O)C5=O)CC3)c2)C1` (centres unmarked) [Example 30, 4-[[7-[4-[[3-[1-[3-amino-6-(2-hydroxyphenyl)pyridazin-4-yl]azetidin-3-yl]oxyphenyl]methyl]piperazin-1-yl]-7-oxo-heptyl]amino]-2-(2,6-dioxo-3-piperidyl)isoindoline-1,3-dione], the DC50 (6 h incubation) was determined as 92 nM. In addition, under setting [1], the Emax stood at 63%.

With `Nc1nnc(-c2ccccc2O)cc1N1CCN(c2cccc(OCCN3CCN(C(=O)C4CCN(c5ccc6c(c5)C(=O)N(C5CCC(=O)NC5=O)C6=O)CC4)CC3)c2)C2(CCC2)C1` (centres unmarked) [Example 197, 5-[4-[4-[2-[3-[8-[3-amino-6-(2-hydroxyphenyl)pyridazin-4-yl]-5,8-diazaspiro[3.5]nonan-5-yl]phenoxy]ethyl]piperazine-1-carbonyl]-1-piperidyl]-2-(2,6-dioxo-3-piperidyl)isoindoline-1,3-dione], the DC50 (6 h incubation) turned out to be 46 nM. In addition, the Emax under setting [1] is 30%.

As for `Nc1nnc(-c2ccccc2O)cc1N1CC2CCC(C1)N2c1cccc(CN2CCC(C(=O)N3CCC(Oc4ccc5c(c4)C(=O)N(C4CCC(=O)NC4=O)C5=O)CC3)CC2)c1` (racemic) [Example 96, rac-5-[[1-[1-[[3-[3-[3-amino-6-(2-hydroxyphenyl)pyridazin-4-yl]-3,8-diazabicyclo[3.2.1]octan-8-yl]phenyl]methyl]piperidine-4-carbonyl]-4-piperidyl]oxy]-2-(2,6-dioxo-3-piperidyl)isoindoline-1,3-dione], the DC50 (6 h incubation) stood at 7 nM. Besides, the maximal effect (Emax) under setting [1] stood at 27%.

For the compound `Nc1nnc(-c2ccccc2O)cc1N1CC2CCC(C1)N2c1cccc(OCCN2CCN(C(=O)N3CCN(c4ccc(OC5CCC(=O)NC5=O)cc4)CC3)CC2)c1` (racemic) [Example 51, rac-3-[4-[4-[4-[2-[3-[3-[3-amino-6-(2-hydroxyphenyl)pyridazin-4-yl]-3,8-diazabicyclo[3.2.1]octan-8-yl]phenoxy]ethyl]piperazine-1-carbonyl]piperazin-1-yl]phenoxy]piperidine-2,6-dione], the DC50 (6 h incubation) is 86 nM. The compound further returned an Emax under setting [1] of 54%.

As for `Nc1nnc(-c2ccccc2O)cc1N1CC2CCC(C1)N2c1cccc(CN2CCN(C(=O)C3CCN(c4ccc5c(c4)C(=O)N(C4CCC(=O)NC4=O)C5=O)CC3)CC2)c1` (racemic) [Example 46, rac-5-[4-[4-[[3-[3-[3-Amino-6-(2-hydroxyphenyl)pyridazin-4-yl]-3,8-diazabicyclo[3.2.1]octan-8-yl]phenyl]methyl]piperazine-1-carbonyl]-1-piperidyl]-2-(2,6-dioxo-3-piperidyl)isoindoline-1,3-dione], the DC50 (6 h incubation) amounted to 12 nM. Moreover, the Emax under setting [1] stood at 24%.

These data come from patent publication US20230024096A1, “BIFUNCTIONAL COMPOUNDS FOR THE TREATMENT OF CANCER” (Hoffmann-La Roche Inc., priority 2019, published 2023).
